Experimental data published in PubChem BioAssay (NCI).
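Five concentrations, 48 hours, 96-well plates. The concentration for full growth arrest is given as TGI.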

Assays:
Assay in all cases: NCI anticancer screen, dose series, 48 h
786-0 renal = system: 786-0 renal
A498 renal = system: A498 renal
A549 NSCLC = system: A549 NSCLC
ACHN renal = system: ACHN renal
BT-549 breast = system: BT-549 breast
CAKI-1 renal = system: CAKI-1 renal
CCRF-CEM leukemia = system: CCRF-CEM leukemia
COLO 205 colon = system: COLO 205 colon
DU-145 prostate = system: DU-145 prostate
EKVX NSCLC = system: EKVX NSCLC
HCC-2998 colon = system: HCC-2998 colon
HCT-116 colon = system: HCT-116 colon
HCT-15 colon = system: HCT-15 colon
HL-60(TB) leukemia = system: HL-60(TB) leukemia
HOP-62 NSCLC = system: HOP-62 NSCLC
HOP-92 NSCLC = system: HOP-92 NSCLC
HS 578T breast = system: HS 578T breast
HT29 colon = system: HT29 colon
IGROV1 ovarian = system: IGROV1 ovarian
K-562 leukemia = system: K-562 leukemia
KM12 colon = system: KM12 colon
LOX IMVI melanoma = system: LOX IMVI melanoma
M14 melanoma = system: M14 melanoma
MALME-3M melanoma = system: MALME-3M melanoma
MCF7 breast = system: MCF7 breast
MDA-MB-231 breast = system: MDA-MB-231 breast
MDA-MB-435 = system: MDA-MB-435
MDA-N = system: MDA-N
MOLT-4 leukemia = system: MOLT-4 leukemia
NCI-H226 lung = system: NCI-H226 lung
NCI-H23 lung = system: NCI-H23 lung
NCI-H460 lung = system: NCI-H460 lung
NCI-H522 lung = system: NCI-H522 lung
NCI/ADR-RES ovarian = system: NCI/ADR-RES ovarian
OVCAR-3 ovarian = system: OVCAR-3 ovarian
OVCAR-4 ovarian = system: OVCAR-4 ovarian
OVCAR-5 ovarian = system: OVCAR-5 ovarian
OVCAR-8 ovarian = system: OVCAR-8 ovarian
PC-3 prostate = system: PC-3 prostate
RPMI-8226 leukemia = system: RPMI-8226 leukemia
RXF 393 renal = system: RXF 393 renal
SF-268 CNS = system: SF-268 CNS
SF-295 CNS = system: SF-295 CNS
SF-539 CNS = system: SF-539 CNS
SK-MEL-2 melanoma = system: SK-MEL-2 melanoma
SK-MEL-28 melanoma = system: SK-MEL-28 melanoma
SK-MEL-5 melanoma = system: SK-MEL-5 melanoma
SK-OV-3 ovarian = system: SK-OV-3 ovarian
SN12C renal = system: SN12C renal
SNB-19 CNS = system: SNB-19 CNS
SNB-75 CNS = system: SNB-75 CNS
SR leukemia = system: SR leukemia
SW-620 colon = system: SW-620 colon
T-47D breast = system: T-47D breast
TK-10 renal = system: TK-10 renal
U251 CNS = system: U251 CNS
UACC-257 melanoma = system: UACC-257 melanoma
UACC-62 melanoma = system: UACC-62 melanoma
UO-31 renal = system: UO-31 renal

**Q.** For `O=C(O)C1CSC2(CCCN(Cc3ccccc3)C2)N1` (stereo not drawn), which TGI (786-0 renal) is on record?
**A.** > 100 µM

**Q.** What about the TGI (A498 renal) of the same compound?
**A.** > 100 µM

**Q.** And the TGI (A549 NSCLC)?
**A.** > 100 µM

**Q.** And the TGI (ACHN renal)?
**A.** > 100 µM

**Q.** What about the TGI (BT-549 breast) of the same compound?
**A.** > 100 µM

**Q.** And the TGI (CAKI-1 renal)?
**A.** > 100 µM

**Q.** And the TGI (CCRF-CEM leukemia)?
**A.** > 79.6 µM

**Q.** And the TGI (COLO 205 colon)?
**A.** > 100 µM

**Q.** What about the TGI (DU-145 prostate) of the same compound?
**A.** > 100 µM

**Q.** What about the TGI (EKVX NSCLC) of the same compound?
**A.** > 100 µM

**Q.** What about the TGI (HCC-2998 colon) of the same compound?
**A.** > 100 µM

**Q.** What about the TGI (HCT-116 colon) of the same compound?
**A.** > 100 µM

**Q.** What about the TGI (HCT-15 colon) of the same compound?
**A.** > 100 µM

**Q.** What about the TGI (HL-60(TB) leukemia) of the same compound?
**A.** > 100 µM

**Q.** What about the TGI (HOP-62 NSCLC) of the same compound?
**A.** > 100 µM

**Q.** And the TGI (HOP-92 NSCLC)?
**A.** > 100 µM

**Q.** What about the TGI (HS 578T breast) of the same compound?
**A.** > 100 µM

**Q.** And the TGI (HT29 colon)?
**A.** > 100 µM

**Q.** What about the TGI (IGROV1 ovarian) of the same compound?
**A.** > 100 µM

**Q.** And the TGI (K-562 leukemia)?
**A.** > 81.1 µM

**Q.** And the TGI (KM12 colon)?
**A.** > 100 µM

**Q.** What about the TGI (LOX IMVI melanoma) of the same compound?
**A.** > 100 µM

**Q.** And the TGI (M14 melanoma)?
**A.** > 100 µM

**Q.** What about the TGI (MALME-3M melanoma) of the same compound?
**A.** > 100 µM

**Q.** And the TGI (MCF7 breast)?
**A.** > 100 µM

**Q.** And the TGI (MDA-MB-231 breast)?
**A.** > 100 µM

**Q.** And the TGI (MDA-MB-435)?
**A.** > 100 µM

**Q.** And the TGI (MDA-N)?
**A.** > 100 µM

**Q.** And the TGI (MOLT-4 leukemia)?
**A.** > 59.9 µM

**Q.** And the TGI (NCI-H226 lung)?
**A.** > 100 µM

**Q.** What about the TGI (NCI-H23 lung) of the same compound?
**A.** > 100 µM

**Q.** What about the TGI (NCI-H460 lung) of the same compound?
**A.** > 100 µM

**Q.** And the TGI (NCI-H522 lung)?
**A.** > 100 µM

**Q.** And the TGI (NCI/ADR-RES ovarian)?
**A.** > 100 µM

**Q.** What about the TGI (OVCAR-3 ovarian) of the same compound?
**A.** > 100 µM

**Q.** And the TGI (OVCAR-4 ovarian)?
**A.** > 100 µM

**Q.** What about the TGI (OVCAR-5 ovarian) of the same compound?
**A.** > 100 µM

**Q.** What about the TGI (OVCAR-8 ovarian) of the same compound?
**A.** > 100 µM

**Q.** And the TGI (PC-3 prostate)?
**A.** > 100 µM

**Q.** What about the TGI (RPMI-8226 leukemia) of the same compound?
**A.** > 34.4 µM

**Q.** And the TGI (RXF 393 renal)?
**A.** > 100 µM

**Q.** And the TGI (SF-268 CNS)?
**A.** > 100 µM

**Q.** What about the TGI (SF-295 CNS) of the same compound?
**A.** > 100 µM

**Q.** What about the TGI (SF-539 CNS) of the same compound?
**A.** > 100 µM

**Q.** And the TGI (SK-MEL-2 melanoma)?
**A.** > 100 µM

**Q.** What about the TGI (SK-MEL-28 melanoma) of the same compound?
**A.** > 100 µM

**Q.** What about the TGI (SK-MEL-5 melanoma) of the same compound?
**A.** > 100 µM

**Q.** And the TGI (SK-OV-3 ovarian)?
**A.** > 100 µM

**Q.** And the TGI (SN12C renal)?
**A.** > 100 µM

**Q.** And the TGI (SNB-19 CNS)?
**A.** > 100 µM

**Q.** And the TGI (SNB-75 CNS)?
**A.** > 100 µM

**Q.** And the TGI (SR leukemia)?
**A.** 34.4 µM

**Q.** What about the TGI (SW-620 colon) of the same compound?
**A.** > 100 µM

**Q.** What about the TGI (T-47D breast) of the same compound?
**A.** > 100 µM

**Q.** And the TGI (TK-10 renal)?
**A.** > 100 µM

**Q.** What about the TGI (U251 CNS) of the same compound?
**A.** > 100 µM

**Q.** And the TGI (UACC-257 melanoma)?
**A.** > 100 µM

**Q.** What about the TGI (UACC-62 melanoma) of the same compound?
**A.** > 100 µM

**Q.** What about the TGI (UO-31 renal) of the same compound?
**A.** > 100 µM

**Q.** What does the source list for `CCC(C)N1CN(c2ccccc2)C2(CCN(CCCC3(c4ccc(F)cc4)OCCO3)CC2)C1=O` (stereo not drawn)?
**A.** TGI (786-0 renal): 13.3 µM; TGI (A498 renal): 37 µM; TGI (A549 NSCLC): 23.2 µM; TGI (ACHN renal): 14.9 µM; TGI (BT-549 breast): 5.82 µM; TGI (CAKI-1 renal): > 68.3 µM; TGI (CCRF-CEM leukemia): 15.3 µM; TGI (COLO 205 colon): 16.8 µM; TGI (DU-145 prostate): > 57.3 µM; TGI (EKVX NSCLC): 17.6 µM; TGI (HCC-2998 colon): 26.9 µM; TGI (HCT-116 colon): 24.9 µM; TGI (HCT-15 colon): 10.8 µM; TGI (HL-60(TB) leukemia): 23 µM; TGI (HOP-62 NSCLC): 27.6 µM; TGI (HOP-92 NSCLC): 0.959 µM; TGI (HS 578T breast): 14.2 µM; TGI (HT29 colon): > 37.5 µM; TGI (IGROV1 ovarian): 30.7 µM; TGI (K-562 leukemia): 34.3 µM; TGI (KM12 colon): > 50.6 µM; TGI (LOX IMVI melanoma): 21.6 µM; TGI (M14 melanoma): > 35.7 µM; TGI (MALME-3M melanoma): 9.5 µM; TGI (MCF7 breast): 7.58 µM; TGI (MDA-MB-231 breast): 26.2 µM; TGI (MDA-MB-435): 45.6 µM; TGI (MDA-N): 17.9 µM; TGI (MOLT-4 leukemia): 19.5 µM; TGI (NCI-H226 lung): 32.7 µM; TGI (NCI-H23 lung): 18.1 µM; TGI (NCI-H460 lung): 30.8 µM; TGI (NCI-H522 lung): 10.2 µM; TGI (NCI/ADR-RES ovarian): 27.6 µM; TGI (OVCAR-3 ovarian): 29.8 µM; TGI (OVCAR-4 ovarian): > 49.4 µM; TGI (OVCAR-5 ovarian): 22.4 µM; TGI (OVCAR-8 ovarian): 20.6 µM; TGI (PC-3 prostate): 11.4 µM; TGI (RPMI-8226 leukemia): 4 µM; TGI (RXF 393 renal): 26.5 µM; TGI (SF-268 CNS): 48.5 µM; TGI (SF-295 CNS): 10.6 µM; TGI (SF-539 CNS): 10.1 µM; TGI (SK-MEL-2 melanoma): 28.7 µM; TGI (SK-MEL-28 melanoma): 34.4 µM; TGI (SK-MEL-5 melanoma): 8.24 µM; TGI (SK-OV-3 ovarian): 56 µM; TGI (SN12C renal): 18.9 µM; TGI (SNB-19 CNS): 34.6 µM; TGI (SNB-75 CNS): 19.8 µM; TGI (SR leukemia): 23.5 µM; TGI (SW-620 colon): 28.8 µM; TGI (T-47D breast): 42.5 µM; TGI (TK-10 renal): 20.7 µM; TGI (U251 CNS): 10.9 µM; TGI (UACC-257 melanoma): 4.24 µM; TGI (UACC-62 melanoma): > 55.2 µM; TGI (UO-31 renal): 10.7 µM
